Laboratory results taken from patent US20110039787A1, “COMPOSITIONS, KITS AND METHODS FOR TREATING BENIGN PROSTATE HYPERPLASIA” (priority 2009, published 2011).
Square brackets hold non-standard residues; d marks the D form. Peptide text beside a SMILES is read from it. * marks the point of attachment. dPhe(4-NHCONH2) = NC(=O)Nc1ccc(C[C@@H](N)C(=O)O)cc1; Dihydroorotyl(S) = O=C1C[C@@H](C(=O)*)NC(=O)N1; dPhe(4-Cl) = N[C@H](Cc1ccc(Cl)cc1)C(=O)O; Phe(4-NH2) = Nc1ccc(C[C@H](N)C(=O)O)cc1; d2Nal = N[C@H](Cc1ccc2ccccc2c1)C(=O)O; Lys(iPr) = CC(C)NCCCC[C@H](N)C(=O)O; d3Pal = N[C@H](Cc1cccnc1)C(=O)O

How the values were obtained:
men with BPH [1] = assay: IPSS global QoL question, clinical trial in BPH patients; format: in vivo
Method: (§1) For each patient, the following parameters were measured or assessed (using the methods discussed below), at time points of screening day 0 (e.g., −7 days, “baseline”), day 14, day 28, and day 42:
(§2) After the initial 6-week treatment period of the exploratory study had been completed, a 12-month follow-up period looking at long-term efficacy commenced. Interim data of the main efficacy variables (IPSS, IPSS Global QoL, prostate volume, urinary flow, and post-void residual volume—measured as set out below) after 6 months' follow-up are also presented herein at Tables 1, 2, 3, and FIG. 1b. FIG. 1b also includes IPSS data at 9 and 12 months.
Included in the IPSS is one item to evaluate QoL (i.e., IPSS-global QoL). The Global QoL Question was developed alongside the IPSS and was officially included as part of the IPSS in 1993 when the WHO formally recommended the IPSS for both symptom and QoL assessment. […] This question assesses the degree to which patients find their symptoms bothersome. Patients are asked about how they would feel if they were to spend the rest of their lives with their prostate symptoms just as they are now. The choices for answering this quality of life question range from “delighted” (rating=0) to “terrible” (rating=6).

prostate volume = assay: Prostate volume by transrectal ultrasound; format: in vivo, men
Method: as §1
(§3) 2) Efficacy Endpoints—the measured Peak Urinary Flow, Post-void Residual Volume, and Prostate Volume.
as §2
The prostate volume was measured by transrectal ultrasound with the patient in a lateral position. The prostatic gland was sonicated from two directions perpendicular to one another resulting in three cursor positions set by the urologist. The volume was calculated automatically. The investigations were performed by urologists by methods known in the art.

men with BPH [2] = assay: Post-void residual volume by transabdominal ultrasound; format: in vivo; conditions: all treatment groups
Method: as §1, §3
The Post-void Residual Volume (PVR) was evaluated by transabdominal ultrasound. The urine in the patient's bladder was sonicated from two directions perpendicular to one another resulting in three cursor positions set by the urologist. The volume was calculated automatically. The investigations were performed by urologists by methods known in the art.

[3] = 16+16 mg, Month 6 follow-up, n=6
[4] = 32+32 mg, Month 6 follow-up, n=7
[5] = combined group (all doses), Day 42

Compound: CC(=O)N[C@H](Cc1ccc2ccccc2c1)C(=O)N[C@H](Cc1ccc(Cl)cc1)C(=O)N[C@H](Cc1cccnc1)C(=O)N[C@@H](CO)C(=O)N[C@@H](Cc1ccc(NC(=O)[C@@H]2CC(=O)NC(=O)N2)cc1)C(=O)N[C@H](Cc1ccc(NC(N)=O)cc1)C(=O)N[C@@H](CC(C)C)C(=O)N[C@@H](CCCCNC(C)C)C(=O)N1CCC[C@H]1C(=O)N[C@H](C)C(N)=O [Degarelix, D-Alaninamide, N-acetyl-3-(2-naphthalenyl)-D-alanyl-4-chloro-D-phenylalanyl-3-(3-pyridinyl)-D-alanyl-L-seryl-4-[[[(4S)-hexahydro-2,6-dioxo-4-pyrimidinyl]carbonyl]amino]-L-phenylalanyl-4-[(aminocarbonyl)amino]-D-phenylalanyl-L leucyl-N6-(1-methylethyl)-L-lysyl-L-prolyl] (Ac-[d2Nal][dPhe(4-Cl)][d3Pal]S[Phe(4-NH2)](Dihydroorotyl(S))[dPhe(4-NHCONH2)]L[Lys(iPr)]P[dA]-NH2)
- Mean IPSS global QoL score, mean (SD) (men with BPH [1]; 32 mg, Day 42, N=12): 1.8 (2.0)
- Mean change from baseline in IPSS global QoL score, mean (SD) (men with BPH [1]; 32 mg, Day 42, N=12): −2.1 (3.0)
- Change from baseline in IPSS global QoL score, mean (SD) (men with BPH [1]; 32 mg, Month 6 follow-up, n=7): −1.4 (1.1)
- Mean IPSS global QoL score, mean (SD) (men with BPH [1]; 32 mg, Month 6 follow-up, n=7): 1.4 (1.5)
- Mean IPSS global QoL score, mean (SD) (men with BPH [1]; 64 mg, Day 42, N=13): 2.5 (1.3)
- Mean change from baseline in IPSS global QoL score, mean (SD) (men with BPH [1]; 64 mg, Day 42, N=13): −2.2 (1.6)
- Change from baseline in IPSS global QoL score, mean (SD) (men with BPH [1]; 64 mg, Month 6 follow-up, n=4): −0.8 (1.7)
- Mean IPSS global QoL score, mean (SD) (men with BPH [1]; 64 mg, Month 6 follow-up, n=4): 3.8 (1.3)
- Mean IPSS global QoL score, mean (SD) (men with BPH [1]; 16+16 mg, Day 42, N=13): 2.9 (1.4)
- Mean change from baseline in IPSS global QoL score, mean (SD) (men with BPH [1]; 16+16 mg, Day 42, N=13): −1.2 (1.4)
- Change from baseline in IPSS global QoL score, mean (SD) (men with BPH [1]; [3]): −0.3 (0.5)
- Mean IPSS global QoL score, mean (SD) (men with BPH [1]; [3]): 4.2 (1.5)
- Mean IPSS global QoL score, mean (SD) (men with BPH [1]; 32+32 mg, Day 42, N=12): 1.9 (1.6)
- Mean change from baseline in IPSS global QoL score, mean (SD) (men with BPH [1]; 32+32 mg, Day 42, N=12): −2.4 (1.9)
- Change from baseline in IPSS global QoL score, mean (SD) (men with BPH [1]; [4]): −2.7 (2.1)
- Mean IPSS global QoL score, mean (SD) (men with BPH [1]; [4]): 1.6 (0.8)
- Patients feeling delighted, pleased, or mostly satisfied (IPSS Global QoL scores 0-2) (men with BPH [1]; [5]): 58%
- Patients feeling unhappy or terrible (IPSS Global QoL scores 5 and 6) (men with BPH [1]; [5]): 12%
- Mean (SD) Prostate Volume (prostate volume; 32 mg, Day 42, N=12): 34.8 (14.2) mL
- Prostate Volume, Change from Baseline, mean (SD) (prostate volume; 32 mg, Day 42, N=12): −13.9 (14.7) mL
- Prostate Volume, Percentage Change from Baseline, mean (SD) (prostate volume; 32 mg, Day 42, N=12): −25.1 (18.0) %
- Mean (SD) Prostate Volume (prostate volume; 32 mg, Month 6 follow-up, n=7): 34.3 (13.9) mL
- Prostate Volume, Change from Baseline, mean (SD) (prostate volume; 32 mg, Month 6 follow-up, n=7): −11.6 (5.1) mL
- Prostate Volume, Percentage Change from Baseline, mean (SD) (prostate volume; 32 mg, Month 6 follow-up, n=7): −25.6 (8.0) %
- Mean (SD) Prostate Volume (prostate volume; 64 mg, Day 42, N=13): 30.6 (10.5) mL
- Prostate Volume, Change from Baseline, mean (SD) (prostate volume; 64 mg, Day 42, N=13): −8.2 (10.2) mL
- Prostate Volume, Percentage Change from Baseline, mean (SD) (prostate volume; 64 mg, Day 42, N=13): −19.7 (23.2) %
- Mean (SD) Prostate Volume (prostate volume; 64 mg, Month 6 follow-up, n=4): 29.0 (3.4) mL
- Prostate Volume, Change from Baseline, mean (SD) (prostate volume; 64 mg, Month 6 follow-up, n=4): −9.7 (10.4) mL
- Prostate Volume, Percentage Change from Baseline, mean (SD) (prostate volume; 64 mg, Month 6 follow-up, n=4): −21.5 (20.6) %
- Mean (SD) Prostate Volume (prostate volume; 16+16 mg, Day 42, N=13): 34.5 (11.0) mL
- Prostate Volume, Change from Baseline, mean (SD) (prostate volume; 16+16 mg, Day 42, N=13): −7.5 (7.7) mL
- Prostate Volume, Percentage Change from Baseline, mean (SD) (prostate volume; 16+16 mg, Day 42, N=13): −17.0 (16.7) %
- Mean (SD) Prostate Volume (prostate volume; [3]): 29.6 (10.4) mL
- Prostate Volume, Change from Baseline, mean (SD) (prostate volume; [3]): −11.2 (4.4) mL
- Prostate Volume, Percentage Change from Baseline, mean (SD) (prostate volume; [3]): −27.8 (8.7) %
- Mean (SD) Prostate Volume (prostate volume; 32+32 mg, Day 42, N=12): 28.7 (8.2) mL
- Prostate Volume, Change from Baseline, mean (SD) (prostate volume; 32+32 mg, Day 42, N=12): −9.4 (9.3) mL
- Prostate Volume, Percentage Change from Baseline, mean (SD) (prostate volume; 32+32 mg, Day 42, N=12): −23.5 (20.9) %
- Mean (SD) Prostate Volume (prostate volume; [4]): 26.5 (6.0) mL
- Prostate Volume, Change from Baseline, mean (SD) (prostate volume; [4]): −10.6 (8.8) mL
- Prostate Volume, Percentage Change from Baseline, mean (SD) (prostate volume; [4]): −27.1 (17.3) %
- Mean post-void residual volume (men with BPH [2]; Day 14, apparent dose dependent way): decreased
- Mean post-void residual volume versus baseline (men with BPH [2]; Day 42): lower than the baseline value
- Number of patients in whom post-void residual volume had decreased compared to baseline (men with BPH [2]; Day 42): 33 patients
- Number of patients in whom post-void residual volume increased compared to baseline (men with BPH [2]; Day 42): 17 patients
